Test results published in PubChem BioAssay AID1259407 (Chemical Carcinogenesis Research Information System (CCRIS), 2018).
Activity calls are given as the source filed them. The rule behind the calls is not given here.

Tested on: CCRIS mutagenicity, Ames/micronucleus/aberration tests
Test: CCRIS mutagenicity studies
[1] = Test System: AMES SALMONELLA TYPHIMURIUM, Strain/Indicator: TA98, Metabolic Activation: NONE, Method: STANDARD PLATE
[2] = Test System: AMES SALMONELLA TYPHIMURIUM, Strain/Indicator: TA98, Metabolic Activation: RAT, LIVER, S-9, AROCLOR 1254, Method: STANDARD PLATE
[3] = Test System: AMES SALMONELLA TYPHIMURIUM, Strain/Indicator: TA97, Metabolic Activation: NONE, Method: PREINCUBATION
[4] = Test System: AMES SALMONELLA TYPHIMURIUM, Strain/Indicator: TA98, Metabolic Activation: NONE, Method: PREINCUBATION
[5] = Test System: AMES SALMONELLA TYPHIMURIUM, Strain/Indicator: TA100, Metabolic Activation: NONE, Method: PREINCUBATION
[6] = Test System: AMES SALMONELLA TYPHIMURIUM, Strain/Indicator: TA100, Metabolic Activation: NONE, Method: STANDARD PLATE
[7] = Test System: AMES SALMONELLA TYPHIMURIUM, Strain/Indicator: TA1535, Metabolic Activation: NONE, Method: STANDARD PLATE
[8] = Test System: AMES SALMONELLA TYPHIMURIUM, Strain/Indicator: TA1537, Metabolic Activation: NONE, Method: STANDARD PLATE

## O[C@H]1C=Cc2c(ccc3c4c5c(cccc5cc23)C=C4)[C@@H]1O
[1]
  mutagenic call: inactive; negative
Test System: AMES SALMONELLA TYPHIMURIUM, Strain/Indicator: TA98, Metabolic Activation: RAT, LIVER, S-9, AROCLOR 1254 (0.4, 0.8, 1.15 OR 1.5 MG/PLATE), Method: STANDARD PLATE
  mutagenic call: active; positive
[2]
  mutagenic call: active; positive

## O=C(O)/C=C\C(=O)O
[3]
  mutagenic call: inactive; negative
Test System: AMES SALMONELLA TYPHIMURIUM, Strain/Indicator: TA97, Metabolic Activation: RAT, LIVER, S-9, PHENOBARBITAL AND 5,6-BENZOFLAVONE, Method: PREINCUBATION
  mutagenic call: inactive; negative
[4]
  mutagenic call: inactive; negative
[1]
  mutagenic call: inactive; negative
[2]
  mutagenic call: inactive; negative
Test System: AMES SALMONELLA TYPHIMURIUM, Strain/Indicator: TA98, Metabolic Activation: RAT, LIVER, S-9, PHENOBARBITAL AND 5,6-BENZOFLAVONE, Method: PREINCUBATION
  mutagenic call: inactive; negative
[5]
  mutagenic call: inactive; negative
[6]
  mutagenic call: inactive; negative
Test System: AMES SALMONELLA TYPHIMURIUM, Strain/Indicator: TA100, Metabolic Activation: RAT, LIVER, S-9, AROCLOR 1254, Method: STANDARD PLATE
  mutagenic call: inactive; negative
Test System: AMES SALMONELLA TYPHIMURIUM, Strain/Indicator: TA100, Metabolic Activation: RAT, LIVER, S-9, PHENOBARBITAL AND 5,6-BENZOFLAVONE, Method: PREINCUBATION
  mutagenic call: inactive; negative
Test System: AMES SALMONELLA TYPHIMURIUM, Strain/Indicator: TA102, Metabolic Activation: NONE, Method: PREINCUBATION
  mutagenic call: inactive; negative
Test System: AMES SALMONELLA TYPHIMURIUM, Strain/Indicator: TA102, Metabolic Activation: RAT, LIVER, S-9, PHENOBARBITAL AND 5,6-BENZOFLAVONE, Method: PREINCUBATION
  mutagenic call: inactive; negative
Test System: AMES SALMONELLA TYPHIMURIUM, Strain/Indicator: TA104, Metabolic Activation: NONE, Method: PREINCUBATION
  mutagenic call: inactive; negative
Test System: AMES SALMONELLA TYPHIMURIUM, Strain/Indicator: TA104, Metabolic Activation: RAT, LIVER, S-9, PHENOBARBITAL AND 5,6-BENZOFLAVONE, Method: PREINCUBATION
  mutagenic call: inactive; negative
[7]
  mutagenic call: inactive; negative
Test System: AMES SALMONELLA TYPHIMURIUM, Strain/Indicator: TA1535, Metabolic Activation: RAT, LIVER, S-9, AROCLOR 1254, Method: STANDARD PLATE
  mutagenic call: inactive; negative
[8]
  mutagenic call: inactive; negative
Test System: AMES SALMONELLA TYPHIMURIUM, Strain/Indicator: TA1537, Metabolic Activation: RAT, LIVER, S-9, AROCLOR 1254, Method: STANDARD PLATE
  mutagenic call: inactive; negative
Test System: AMES SALMONELLA TYPHIMURIUM, Strain/Indicator: TA1538, Metabolic Activation: NONE, Method: STANDARD PLATE
  mutagenic call: inactive; negative
Test System: AMES SALMONELLA TYPHIMURIUM, Strain/Indicator: TA1538, Metabolic Activation: RAT, LIVER, S-9, AROCLOR 1254, Method: STANDARD PLATE
  mutagenic call: inactive; negative

## O=[N+]([O-])c1cccc2ccccc12
[1]
  mutagenic call: active; positive
Test System: E. COLI, Strain/Indicator: WP2 UVRA, Metabolic Activation: HAMSTER, LIVER, S-9, AROCLOR 1254, Method: STANDARD PLATE
  mutagenic call: inactive; negative
Test System: E. COLI, Strain/Indicator: WP2 UVRA, Metabolic Activation: MOUSE, LIVER, S-9, AROCLOR 1254, Method: STANDARD PLATE
  mutagenic call: inactive; negative
Test System: E. COLI, Strain/Indicator: WP2 UVRA, Metabolic Activation: MOUSE, LIVER, S-9, Method: STANDARD PLATE
  mutagenic call: inactive; negative
Test System: E. COLI, Strain/Indicator: WP2 UVRA, Metabolic Activation: NONE, Method: STANDARD PLATE
  mutagenic call: inactive; negative
Test System: E. COLI, Strain/Indicator: WP2 UVRA, Metabolic Activation: RAT, LIVER, S-9, AROCLOR 1254, Method: STANDARD PLATE
  mutagenic call: inactive; negative
Test System: E. COLI, Strain/Indicator: WP2 UVRA, Metabolic Activation: RAT, LIVER, S-9, Method: STANDARD PLATE
  mutagenic call: inactive; negative

## Cc1ccc(N)cc1O
Test System: AMES SALMONELLA TYPHIMURIUM, Strain/Indicator: TA97, Metabolic Activation: HAMSTER, LIVER, S-9, AROCLOR 1254 (10%), Method: PREINCUBATION
  mutagenic call: active; positive
[3]
  mutagenic call: inactive; negative
Test System: AMES SALMONELLA TYPHIMURIUM, Strain/Indicator: TA97, Metabolic Activation: RAT, LIVER, S-9, AROCLOR 1254 (10%), Method: PREINCUBATION
  mutagenic call: active; positive
Test System: AMES SALMONELLA TYPHIMURIUM, Strain/Indicator: TA98, Metabolic Activation: HAMSTER LIVER S-9, AROCLOR 1254, Method: STANDARD PLATE
  mutagenic call: inactive; negative
Test System: AMES SALMONELLA TYPHIMURIUM, Strain/Indicator: TA98, Metabolic Activation: HAMSTER, LIVER, S-9, AROCLOR 1254 (10%), Method: PREINCUBATION
  mutagenic call: active; positive
[4]
  mutagenic call: inactive; negative
[1]
  mutagenic call: inactive; negative
Test System: AMES SALMONELLA TYPHIMURIUM, Strain/Indicator: TA98, Metabolic Activation: RAT LIVER S-9, AROCLOR 1254, Method: STANDARD PLATE
  mutagenic call: inactive; negative
Test System: AMES SALMONELLA TYPHIMURIUM, Strain/Indicator: TA98, Metabolic Activation: RAT, LIVER, S-9, AROCLOR 1254 (10%), Method: PREINCUBATION
  mutagenic call: active; positive
Test System: AMES SALMONELLA TYPHIMURIUM, Strain/Indicator: TA100, Metabolic Activation: HAMSTER LIVER S-9, AROCLOR 1254, Method: STANDARD PLATE
  mutagenic call: inactive; negative
Test System: AMES SALMONELLA TYPHIMURIUM, Strain/Indicator: TA100, Metabolic Activation: HAMSTER, LIVER, S-9, AROCLOR 1254 (10%), Method: PREINCUBATION
  mutagenic call: active; positive
[5]
  mutagenic call: inactive; negative
[6]
  mutagenic call: inactive; negative
Test System: AMES SALMONELLA TYPHIMURIUM, Strain/Indicator: TA100, Metabolic Activation: RAT LIVER S-9, AROCLOR 1254, Method: STANDARD PLATE
  mutagenic call: inactive; negative
Test System: AMES SALMONELLA TYPHIMURIUM, Strain/Indicator: TA100, Metabolic Activation: RAT, LIVER, S-9, AROCLOR 1254 (10%), Method: PREINCUBATION
  mutagenic call: active; positive
Test System: AMES SALMONELLA TYPHIMURIUM, Strain/Indicator: TA102, Metabolic Activation: HAMSTER LIVER S-9, AROCLOR 1254, Method: STANDARD PLATE
  mutagenic call: inactive; negative
Test System: AMES SALMONELLA TYPHIMURIUM, Strain/Indicator: TA102, Metabolic Activation: NONE, Method: STANDARD PLATE
  mutagenic call: inactive; negative
Test System: AMES SALMONELLA TYPHIMURIUM, Strain/Indicator: TA102, Metabolic Activation: RAT LIVER S-9, AROCLOR 1254, Method: STANDARD PLATE
  mutagenic call: inactive; negative
Test System: AMES SALMONELLA TYPHIMURIUM, Strain/Indicator: TA1535, Metabolic Activation: HAMSTER LIVER S-9, AROCLOR 1254, Method: STANDARD PLATE
  mutagenic call: inactive; negative
Test System: AMES SALMONELLA TYPHIMURIUM, Strain/Indicator: TA1535, Metabolic Activation: HAMSTER, LIVER, S-9, AROCLOR 1254 (10%), Method: PREINCUBATION
  mutagenic call: inactive; negative
Test System: AMES SALMONELLA TYPHIMURIUM, Strain/Indicator: TA1535, Metabolic Activation: NONE, Method: PREINCUBATION
  mutagenic call: inactive; negative
[7]
  mutagenic call: inactive; negative
Test System: AMES SALMONELLA TYPHIMURIUM, Strain/Indicator: TA1535, Metabolic Activation: RAT LIVER S-9, AROCLOR 1254, Method: STANDARD PLATE
  mutagenic call: inactive; negative
Test System: AMES SALMONELLA TYPHIMURIUM, Strain/Indicator: TA1535, Metabolic Activation: RAT, LIVER, S-9, AROCLOR 1254 (10%), Method: PREINCUBATION
  mutagenic call: inactive; negative
Test System: AMES SALMONELLA TYPHIMURIUM, Strain/Indicator: TA1537, Metabolic Activation: HAMSTER LIVER S-9, AROCLOR 1254, Method: STANDARD PLATE
  mutagenic call: inactive; negative
[8]
  mutagenic call: inactive; negative
Test System: AMES SALMONELLA TYPHIMURIUM, Strain/Indicator: TA1537, Metabolic Activation: RAT LIVER S-9, AROCLOR 1254, Method: STANDARD PLATE
  mutagenic call: inactive; negative
Test System: Mouse lymphoma, Strain/Indicator: L5178Y (tk+/tk-), Metabolic Activation: None, Method: Suspension/plate
  mutagenic call: active; positive
Test System: Mouse lymphoma, Strain/Indicator: L5178Y (tk+/tk-), Metabolic Activation: Rat, Liver, S-9, Aroclor 1254, Method: Suspension/plate
  mutagenic call: inactive; negative
